How the values were obtained:
Assay in all cases: combination Emax (second highest fraction inhibited in the dose matrix, 72 h); higher = more inhibition; extreme values may be limits of the assay
[1] = test system: NCI-H196 (Small Cell Lung Carcinoma)
Outline: (§1)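 Cell lines in DMEM/F12 or RPMI with 10% FBS were plated in 1536-well plates, held 24 hours at 37°C, 5% CO2, then given two-drug dose matrices for 72 hours (DMSO typically 0.2%). Viability was read by CellTiter-Glo 2.0 luminescence and scaled as inhibition from 0 (vehicle wells) to 1 (blank wells). Combination Emax is the second-highest inhibition in the matrix; Bliss excess is observed combination effect minus expected EA + EB − EA·EB, EA and EB being single-agent effects.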

KYM-1 (Rhabdomyosarcoma) = test system: KYM-1 (Rhabdomyosarcoma)
Outline: as §1

[2] = test system: AN3-CA (Endometrial Carcinoma)
Outline: as §1

CHL-1 (Melanoma) = test system: CHL-1 (Melanoma)
Outline: as §1

[3] = test system: NCI-H1563 (Lung Adenocarcinoma)
Outline: as §1

[4] = test system: NKM-1 (Acute Myeloid Leukemia)
Outline: as §1

[5] = test system: OCI-AML5 (Acute Myeloid Leukemia)
Outline: as §1

786-0 (Kidney Carcinoma) = test system: 786-0 (Kidney Carcinoma)
Outline: as §1

[6] = test system: LOUCY (T-Lymphoblastic Leukemia)
Outline: as §1

[7] = test system: HTC-C3 (Thyroid Gland Carcinoma)
Outline: as §1

[8] = test system: FLO-1 (Esophageal Adenocarcinoma)
Outline: as §1

[9] = test system: COLO-684 (Endometrial Carcinoma)
Outline: as §1

[10] = test system: SNU-175 (Colorectal Carcinoma)
Outline: as §1

[11] = test system: SK-MM-2 (Plasma Cell Myeloma)
Outline: as §1

[12] = test system: EB-3 (Burkitt's Lymphoma)
Outline: as §1

[13] = test system: BALL-1 (B-Lymphoblastic Leukemia)
Outline: as §1

[14] = test system: Calu-6 (Non-Small Cell Lung Carcinoma)
Outline: as §1

[15] = test system: NCI-H1755 (Lung Adenocarcinoma)
Outline: as §1

[16] = test system: NCI-H810 (Non-Small Cell Lung Carcinoma)
Outline: as §1

ES-2 (Ovarian Carcinoma) = test system: ES-2 (Ovarian Carcinoma)
Outline: as §1

SMILES | combination Emax [1] | combination Emax (KYM-1 (Rhabdomyosarcoma)) | combination Emax [2] | combination Emax (CHL-1 (Melanoma)) | combination Emax [3] | combination Emax [4] | combination Emax [5] | combination Emax (786-0 (Kidney Carcinoma)) | combination Emax [6] | combination Emax [7] | combination Emax [8] | combination Emax [9] | combination Emax [10] | combination Emax [11] | combination Emax [12] | combination Emax [13] | combination Emax [14] | combination Emax [15] | combination Emax [16] | combination Emax (ES-2 (Ovarian Carcinoma))
COc1cccc(OCCCN)c1-c1cc(Nc2cnc(C#N)cn2)n[nH]1 [Prexasertib] + C=CCn1c(=O)c2cnc(Nc3ccc(N4CCN(C)CC4)cc3)nc2n1-c1cccc(C(C)(C)O)n1 [AZD1775] (first compound max 1 µM, partner max 1 µM) | 0.723 | 0.966 | 0.954 | 0.845 | 0.482 | 0.956 | 1 | 0.957 | 1 | 0.911 | 0.94 | 0.856 | 0.744 | 0.723 | 0.818 | 0.997 | 0.806 | 0.926 | 0.981 | 0.844
Cc1c2c(nn1C)CSCc1cc(n(C)n1)CSc1cc(c3ccccc3c1)OCCCc1c(C(=O)O)n(C)c3c-2c(Cl)ccc13 [AZD5991] + C[C@@H](Nc1cc(F)cc(F)c1)c1cc(C(=O)N(C)C)cc2c(=O)cc(N3CCOCC3)oc12 [AZD8186] (first compound max 1 µM, 7x7, partner max 3 µM) | 0.282 | 0.497 | 0.899 | 0.485 | 0.824 | 1 | 1 | 0.374 | 0.47 | 0.277 | 0.48 | 0.42 | 0.723 | 0.271 | 0.262 | 0.374 | 0.222 | 0.418 | 0.3 | 0.264
C=CCn1c(=O)c2cnc(Nc3ccc(N4CCN(C)CC4)cc3)nc2n1-c1cccc(C(C)(C)O)n1 [AZD1775] + C[C@@H]1COCCN1C2=NC(=NC(=C2)C3(CC3)[S@](=N)(=O)C)C4=C5C=CNC5=NC=C4 [AZD6738] (first compound max 1 µM, partner max 10 µM) | 0.53 | 0.837 | 0.714 | 0.84 | 0.446 | 0.983 | 0.981 | 0.888 | 1 | 0.882 | 0.924 | 0.851 | 0.702 | 0.705 | 0.855 | 0.988 | 0.808 | 0.899 | 0.975 | 0.841
Cn1cnc2c(F)c(Nc3ccc(Br)cc3Cl)c(C(=O)NOCCO)cc21 [Selumetinib] + CCN(CCO)CCCOc1ccc2c(Nc3cc(CC(=O)Nc4cccc(F)c4)[nH]n3)ncnc2c1 [AZD2811] (first compound max 10 µM, 7x7, partner max 1 µM) | 0.0609 | 0.318 | 0.268 | 0.257 | 0.232 | 0.758 | 1 | 0.208 | 0.909 | 0.654 | 0.475 | 0.14 | 0.956 | 0.161 | 0.219 | 0.477 | 0.733 | 0.541 | 0.444 | 0.488
COc1nnc2ccc(N3CCC(c4ccc(OCCN5CCN(C)C(=O)[C@H]5C)cc4)CC3)nn12 [AZD5153] + CC1(C)CCC(CN2CCN(c3ccc(C(=O)NS(=O)(=O)c4ccc(NCC5CCOCC5)c([N+](=O)[O-])c4)c(Oc4cnc5[nH]ccc5c4)c3)CC2)=C(c2ccc(Cl)cc2)C1 [Venetoclax] (first compound max 1 µM, 7x7, partner max 1 µM) | 0.32 | 0.859 | 0.2 | 0.531 | 0.491 | 0.978 | 1 | 0.503 | 1 | 0.763 | 0.51 | 0.528 | 0.665 | 1 | 0.806 | 1 | 0.157 | 0.454 | 0.583 | 0.546
CC(=O)c1c(C)c2cnc(Nc3ccc(N4CCNCC4)cn3)nc2n(C2CCCC2)c1=O [Palbociclib] + Cn1cnc2c(F)c(Nc3ccc(Br)cc3Cl)c(C(=O)NOCCO)cc21 [Selumetinib] (first compound max 10 µM, 7x7, partner max 10 µM) | 0.0806 | 0.93 | 0.296 | 0.101 | 0.261 | 0.944 | 0.833 | 0.357 | 0.278 | 0.728 | 0.531 | 0.153 | 0.549 | 0.138 | 0.374 | 0.458 | 0.707 | 0.543 | 0.0848 | 0.569
Cn1cnc2c(F)c(Nc3ccc(Br)cc3Cl)c(C(=O)NOCCO)cc21 [Selumetinib] + C[C@@H]1COCCN1C2=NC(=NC(=C2)C3(CC3)[S@](=N)(=O)C)C4=C5C=CNC5=NC=C4 [AZD6738] (first compound max 10 µM, 7x7, partner max 10 µM) | 0.227 | 0.899 | 0.464 | 0.772 | 0.313 | 0.796 | 1 | 0.606 | 0.966 | 0.75 | 0.635 | 0.698 | 0.718 | 0.23 | 0.589 | 1 | 0.817 | 0.738 | 0.414 | 0.714
CCN(CCO)CCCOc1ccc2c(Nc3cc(CC(=O)Nc4cccc(F)c4)[nH]n3)ncnc2c1 [AZD2811] + C=CCn1c(=O)c2cnc(Nc3ccc(N4CCN(C)CC4)cc3)nc2n1-c1cccc(C(C)(C)O)n1 [AZD1775] (first compound max 1 µM, partner max 1 µM) | 0.468 | 0.401 | 0.308 | 0.658 | 0.245 | 0.879 | 0.978 | 0.546 | 1 | 0.3 | 0.769 | 0.649 | 0.637 | 0.644 | 0.62 | 0.986 | 0.727 | 0.76 | 0.886 | 0.627
CN(CCO)CC[C@H](CSc1ccccc1)Nc1ccc(S(=O)(=O)NC(=O)c2ccc(N3CCC([C@@H](O)c4ccccc4-c4ccc(Cl)cc4)CC3)cc2)cc1S(=O)(=O)C(F)(F)F [AZD4320] + CCN(CCO)CCCOc1ccc2c(Nc3cc(CC(=O)Nc4cccc(F)c4)[nH]n3)ncnc2c1 [AZD2811] (first compound max 1 µM, 7x7, partner max 1 µM) | 0.055 | 0.125 | 0.474 | 0.73 | 0.188 | 1 | 1 | 0.166 | 1 | 0.347 | 0.699 | 0.178 | 0.996 | 1 | 0.241 | 1 | 0.801 | 0.43 | 0.894 | 0.168

Source: the supplement of paper PMC11061612
